SMILES strings stand for the structures. Some results are limits rather than exact numbers.

The subject of the experiment is Eschericia coli (E. coli) strain ATCC25922. Nature of the experiment: Standard microdilution assay, MIC against E. coli ATCC25922. It counts as cell-based. The following applies: Escherichia coli; E. coli strain ATCC25922, standard microdilution assay; cutoff 16 micrograms/mL; read-out: MIC E. Coli. Here is the method: The in vitro activity of the compounds of the present invention can be determined. Antimicrobial testing is typically performed to determine the minimum inhibitory concentration (MIC). Minimum inhibitory concentrations (MICs) are determined by the microdilution method in a final volume of 100 μl according to protocols outlined by The Clinical and Laboratory Standards Institute (CLSI). Performance standards for reference strains are assessed within the same experimental design to maintain quality control. See, for example, Clinical Laboratory Standards Institute: Methods for dilution antimicrobial susceptibility tests for bacteria that grow aerobically M7-A8. Approved Standard-Eighth Edition. Wayne, Pa.: CLSI; December 2008; and Clinical Laboratory Standards Institute: Performance Standards for Antimicrobial Susceptibility Testing M100-S20; Approved Standard-Twentieth Edition. Wayne, Pa.: CLSI; June 2010.
The compounds of the present invention were tested for antimicrobial activity. The Compounds 1-582 were run against Eschericia coli (E. coli) strain ATCC25922 and Compounds 320-582 were run against Staphylococcus aureus (S. aureus) 11540 strain using a standard microdilution assay to determine minimum inhibitory concentrations (MICs). […] It will be recognized by one skilled in the art that the compounds can be assessed against other bacterial organisms and that the presentation of data for activity against Eschericia coli and Staphylococcus aureus are illustrative and in no way is intended to limit the scope of the present invention. The compounds of the present invention can be assayed against a range of other microorganisms depending upon the performance activity desired to be gathered. Furthermore, the “+” and “−” representation and the selection of a cutoff value of 16 micrograms/mL is also illustrative and in no way is intended to limit the scope of the present invention.
Background: Broth dilution looks for growth in wells or tubes with falling amounts of substance.
As a reminder, the MIC is the smallest concentration in the dilution series that meets the test's criterion for growth inhibition. Turning to `C[C@H](N)CCCc1cc(Cl)c(F)c(-c2cc3cn(-c4ccc([C@H](C)NCC[C@H](CN)NC(=N)N)cc4)c(=O)nc3[nH]2)c1` [Compound 304], the MIC is below 16 µg/mL.

As for `C[C@H](N)CCCc1cc(-c2cc3cn(-c4ccc([C@H](CCO)NCCCNC(=N)N)cc4)c(=O)nc3[nH]2)cc(C(F)(F)F)c1` [Compound 16], the MIC is below 16 µg/mL.

Turning to `C[C@H](NCCCNC(=N)N)c1ccc(-n2cc3cc(-c4cc(CCC[C@H](C)NC(=O)OCc5ccccc5)cc(Cl)c4F)[nH]c3nc2=O)cc1` [Compound 67], the MIC was below 16 µg/mL.

As for `C[C@H](N)CCCc1cc(Cl)c(F)c(-c2cc3cn(-c4ccc([C@@H]5CC[C@@H](CCNC(=N)N)N5)cc4)c(=O)nc3[nH]2)c1` [Compound 285], the MIC was below 16 µg/mL.

On to `C[C@H](N)CCCc1cc(Cl)c(F)c(-c2cc3cn(-c4ccc(CNCC(=O)O)cc4)c(=O)nc3[nH]2)c1` [Compound 115], for which the MIC is above 16 µg/mL.

Consider `COc1ccc([C@H](NCCCNC(=N)N)c2ccc(-n3cc4cc(-c5cc(CCC[C@H](C)N)cc(Cl)c5F)[nH]c4nc3=O)cc2)cc1` [Compound 5], for which the MIC is below 16 µg/mL.

With `C[C@H](N)CCCc1cc(Cl)c(F)c(-c2cc3cn(-c4ccc([C@H](C)N[C@@H](C)CCNC(=N)N)cc4)c(=O)nc3[nH]2)c1` [Compound 219], the MIC is below 16 µg/mL.

`C[C@H](N)CCCc1cc(Cl)c(F)c(-c2cc3cn(-c4ccc([C@@H](NCCCNC(=N)N)c5ccc(S(C)(=O)=O)cc5)cc4)c(=O)nc3[nH]2)c1` [Compound 39]: the minimum inhibitory concentration (MIC) is below 16 µg/mL.

Regarding `C[C@H](N)CCCc1cc(OC(F)(F)F)c(F)c(-c2cc3cn(-c4ccc([C@H](C)NCC[C@@H](CO)NC(=N)N)cc4)c(=O)nc3[nH]2)c1` [Compound 265], the MIC is below 16 µg/mL.

Turning to `COc1ccc(Cn2cc(CNCc3ccc(-n4cc5cc(-c6cc(CCC[C@H](C)N)cc(SC(F)(F)F)c6)[nH]c5nc4=O)cc3)nn2)cc1` [Compound 122], the MIC was above 16 µg/mL.

With `C[C@H](NCCCNC(=N)N)c1ccc(-n2cc3cc(-c4cc(CO[C@H](CN)CO)cc(SC(F)(F)F)c4)[nH]c3nc2=O)cc1` [Compound 55], the MIC was below 16 µg/mL.

As to `C[C@H](N)CCCc1cc(Cl)c(F)c(-c2cc3cn(-c4ccc([C@H](C)NCC[C@@H](CCc5ccccc5)NC(=N)N)cc4)c(=O)nc3[nH]2)c1` [Compound 258], the minimal inhibitory concentration (MIC) is below 16 µg/mL.

Consider `C[C@H](N)CCCc1cc(OC(F)(F)F)c(F)c(-c2cc3cn(-c4ccc([C@H](C)NCC[C@H](CCC#N)NC(=N)N)cc4)c(=O)nc3[nH]2)c1` [Compound 315], for which the MIC was below 16 µg/mL.

In the case of `C[C@H](N)CCCc1cc(Cl)c(F)c(-c2cc3cn(-c4ccc([C@@H](NCCCNC(=N)N)c5ccc(O)cc5)cc4)c(=O)nc3[nH]2)c1` [Compound 26], the MIC is below 16 µg/mL.

Consider `COc1ccc(Cn2cc(C[C@H](NCCCNC(=N)N)c3ccc(-n4cc5cc(-c6cc(CCC[C@H](C)N)cc(SC(F)(F)F)c6)[nH]c5nc4=O)cc3)nn2)cc1` [Compound 43], for which the MIC was below 16 µg/mL.

Regarding `C=C[C@H](N)CCNCc1ccc(-n2cc3cc(-c4cc(CCC[C@H](C)N)cc(Cl)c4F)[nH]c3nc2=O)cc1` [Compound 143], the MIC is below 16 µg/mL.

For `C[C@H](N)CCCc1cc(Cl)c(F)c(-c2cc3cn(-c4ccc([C@H](C)NCC[C@@H](CCN)NC(=N)N)cc4)c(=O)nc3[nH]2)c1` [Compound 313], the MIC was below 16 µg/mL.

Consider `COC(=O)N[C@@H](C)CCCc1cc(Cl)c(F)c(-c2cc3cn(-c4ccc([C@H](C)NCCCNC(=N)N)cc4)c(=O)nc3[nH]2)c1` [Compound 70], for which the MIC is below 16 µg/mL.

Consider `C[C@H](N)CCCc1cc(SC(F)(F)F)cc(-c2cc3cn(-c4ccc([C@H](Cc5cccnc5)NCCCNC(=N)N)cc4)c(=O)nc3[nH]2)c1` [Compound 57], for which the MIC is below 16 µg/mL.

As to `C[C@H](N)CCCc1cc(OC(F)(F)F)c(F)c(-c2cc3cn(-c4ccc(CN[C@@H](CO)CCNC(=N)N)cc4)c(=O)nc3[nH]2)c1` [Compound 274], the MIC is below 16 µg/mL.

Turning to `COc1ccc([C@H](c2ccc(SC)cc2)c2ccc(-n3cc4cc(-c5cc(CCC[C@H](C)N)cc(SC(F)(F)F)c5)[nH]c4nc3=O)cc2)cc1` [Compound 8], the MIC is above 16 µg/mL.

With `C[C@H](N)CCCc1cc(OC(F)(F)F)c(F)c(-c2cc3cn(-c4ccc([C@H](C)NCC[C@H](C)N)cc4)c(=O)nc3[nH]2)c1` [Compound 223], the minimum inhibitory concentration (MIC) is below 16 µg/mL.

For the compound `CC[C@H](CCNCc1ccc(-n2cc3cc(-c4cc(CCC[C@H](C)N)cc(Cl)c4F)[nH]c3nc2=O)cc1)NC(=N)N` [Compound 198], the MIC was below 16 µg/mL.

As for `COC(=O)C[C@H](CCN[C@@H](C)c1ccc(-n2cc3cc(-c4cc(CCC[C@H](C)N)cc(Cl)c4F)[nH]c3nc2=O)cc1)NC(=N)N` [Compound 280], the MIC is below 16 µg/mL.

For the compound `C=C[C@H](CCNCc1ccc(-n2cc3cc(-c4cc(CCC[C@H](C)N)cc(OC(F)(F)F)c4F)[nH]c3nc2=O)cc1)NC(=N)N` [Compound 238], the MIC was below 16 µg/mL.

For `C[C@H](N)CCCc1cc(SC(F)(F)F)cc(-c2cc3cn(-c4ccc([C@H](CCO)NCCCNC(=N)N)cc4)c(=O)nc3[nH]2)c1` [Compound 24], the minimal inhibitory concentration (MIC) is below 16 µg/mL.

With `CCOC(=O)N[C@@H](C)CCCc1cc(Cl)c(F)c(-c2cc3cn(-c4ccc([C@H](C)NCCCNC(=N)N)cc4)c(=O)nc3[nH]2)c1` [Compound 71], the MIC was below 16 µg/mL.

In the case of `C=CCNCCCN[C@@H](C)c1ccc(-n2cc3cc(-c4cc(CCC[C@H](C)N)cc(Cl)c4F)[nH]c3nc2=O)cc1` [Compound 213], the MIC was below 16 µg/mL.

For the compound `C[C@H](N)CCCc1cc(Cl)c(F)c(-c2cc3cn(-c4ccc(CNCC[C@@H](CO)NC(=N)N)cc4)c(=O)nc3[nH]2)c1` [Compound 191], the minimal inhibitory concentration (MIC) was below 16 µg/mL.

As for `C[C@H](N)CCCc1cc(-c2cc3cn(-c4ccc([C@H](CCN)NCCCNC(=N)N)cc4)c(=O)nc3[nH]2)cc(C(F)(F)F)c1` [Compound 18], the MIC is below 16 µg/mL.

As for `C=CC[C@H](CCNCc1ccc(-n2cc3cc(-c4cc(CCC[C@H](C)N)cc(Cl)c4F)[nH]c3nc2=O)cc1)NC(=N)N` [Compound 207], the MIC is below 16 µg/mL.

Take `C[C@H](N)CCCc1cc(-c2cn3cc(-c4ccc([C@H](C)NCCCNC(=N)N)cc4)c(=O)nc3[nH]2)cc(C(F)(F)F)c1` [Compound 298]: the minimum inhibitory concentration (MIC) is below 16 µg/mL.

As to `C=C[C@H](N)CC[C@H](O)c1cc(SC(F)(F)F)cc(-c2cc3cn(-c4ccc([C@H](C)NCCCNC(=N)N)cc4)c(=O)nc3[nH]2)c1` [Compound 91], the MIC was below 16 µg/mL.

Consider `CC(C)[C@@H](N)CCNCc1ccc(-n2cc3cc(-c4cc(CCC[C@H](C)N)cc(Cl)c4F)[nH]c3nc2=O)cc1` [Compound 156], for which the minimum inhibitory concentration (MIC) was below 16 µg/mL.

Consider `C[C@H](N)CCCc1cc(OC(F)(F)F)c(F)c(-c2cc3cn(-c4ccc([C@H](C)NCC[C@@H](CNCc5nccs5)NC(=N)N)cc4)c(=O)nc3[nH]2)c1` [Compound 277], for which the MIC was below 16 µg/mL.

On to `C[C@H](N)CCCc1cc(Cl)c(F)c(-c2cc3cn(-c4ccc(CNCCC(=O)O)cc4)c(=O)nc3[nH]2)c1` [Compound 139], for which the MIC is above 16 µg/mL.

`CC[C@@H](N)COCc1cc(SC(F)(F)F)cc(-c2cc3cn(-c4ccc([C@H](C)NCCCNC(=N)N)cc4)c(=O)nc3[nH]2)c1` [Compound 77]: the MIC is below 16 µg/mL.

Turning to `C=CC[C@@H](NCCCNC(=N)N)c1ccc(-n2cc3cc(-c4cc(CCC[C@H](C)N)cc(C(F)(F)F)c4)[nH]c3nc2=O)cc1` [Compound 4], the MIC was below 16 µg/mL.

Consider `COC[C@H](N)CCCc1cc(SC(F)(F)F)cc(-c2cc3cn(-c4ccc([C@H](C)NCCCNC(=N)N)cc4)c(=O)nc3[nH]2)c1` [Compound 130], for which the MIC was below 16 µg/mL.

For `C[C@H](N)CCCc1cc(SC(F)(F)F)cc(-c2cc3cn(-c4ccc([C@@H](NCCCNC(=N)N)c5ccc(S(C)(=O)=O)cc5)cc4)c(=O)nc3[nH]2)c1` [Compound 40], the minimum inhibitory concentration (MIC) is below 16 µg/mL.

`C[C@H](NCCCNC(=N)N)c1ccc(-n2cc3cc(-c4cc(CCC[C@@H](N)COC(=O)Nc5ccccc5)cc(Cl)c4F)[nH]c3nc2=O)cc1` [Compound 307]: the MIC was below 16 µg/mL.

Regarding `C[C@H](N)CCCc1cc(Cl)c(F)c(-c2cc3cn(-c4ccc(CNCC[C@H](CCO)NC(=N)N)cc4)c(=O)nc3[nH]2)c1` [Compound 185], the MIC is below 16 µg/mL.

For the compound `COc1ccc(Cn2cc(C[C@H](NCCCNC(=N)N)c3ccc(-n4cc5cc(-c6cc(CCC[C@H](C)N)cc(C(F)(F)F)c6)[nH]c5nc4=O)cc3)nn2)cc1` [Compound 42], the MIC was below 16 µg/mL.

As to `C[C@H](N)CCCc1cc(-c2cc3cn(-c4ccc([C@@H](CF)NCCCNC(=N)N)cc4)c(=O)nc3[nH]2)cc(C(F)(F)F)c1` [Compound 97], the MIC was below 16 µg/mL.

Take `C[C@H](N)CCCc1cc(SC(F)(F)F)cc(-c2cc3cn(-c4ccc(CN)cc4)c(=O)nc3[nH]2)c1` [Compound 137]: the MIC was above 16 µg/mL.

`O=C(O)CNCc1ccc(-n2cc3cc[nH]c3nc2=O)cc1` [Compound 114]: the MIC was above 16 µg/mL.

Consider `C[C@H](N)CCCc1cc(Cl)c(F)c(-c2cc3cn(-c4ccc([C@H](C)NCC[C@@H](CNCc5nccs5)NC(=N)N)cc4)c(=O)nc3[nH]2)c1` [Compound 272], for which the MIC is below 16 µg/mL.

Values taken from patent publication US10815238B2, “Antimicrobial compounds and methods of making and using the same” (BIOVERSYS AG, priority 2013, dated 2020).
